According to PMC2920814 (PLoS ONE, 2010):
Values joined by “and” are separate entries in the source; they are usually repeats but may differ in a detail not shown here. Equal values may be shown once. “Also recorded” adds a separate entry of the source.

Key:
Erk2 [1] = target: Erk2 (Mus musculus, UniProt P63085); experiment: Affinity chromatography on immobilized drugs, Western blotting; type: binding; conditions: adult mouse brain extract 500 µg, sepharose beads
pyridoxal kinase (PDXK) = target: T1, pyridoxal kinase (PDXK) (Mus musculus, UniProt Q8K183); experiment: as above; type: binding; conditions: adult mouse brain extract 500 µg, sepharose beads
T1 sequence (Q8K183 1-312): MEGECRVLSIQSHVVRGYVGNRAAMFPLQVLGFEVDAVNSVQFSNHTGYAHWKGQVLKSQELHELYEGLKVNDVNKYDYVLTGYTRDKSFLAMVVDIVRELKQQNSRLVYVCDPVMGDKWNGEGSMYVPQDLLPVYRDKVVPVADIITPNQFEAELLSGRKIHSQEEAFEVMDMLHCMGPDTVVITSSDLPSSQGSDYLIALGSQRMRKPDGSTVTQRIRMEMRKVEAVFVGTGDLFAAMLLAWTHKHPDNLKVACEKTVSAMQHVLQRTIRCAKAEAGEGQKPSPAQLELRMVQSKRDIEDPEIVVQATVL

[2] = system: permanent focal cerebral ischemia (pMCAo) in adult mice; experiment: Permanent middle cerebral artery occlusion (pMCAo), infarct volumes by TTC staining; type: in vivo, mouse (C57 b/6); conditions: 3 hrs after occlusion
[3] = Blood brain barrier permeability, brain and plasma level after IV injection (LC/MS/MS); type: in vivo; conditions: SD, rat, brain, sampling time 15 min, healthy adult rats, n = 2
Description: Dosed animals were sacrificed at 15 min after the end of the intravenous injection. Blood were collected through the retro-orbital sinus using a capillary tube. Animals were then perfused with saline solution into the heart to […] the brain. Brain was collected, and homogenized. Both plasma and brain samples were analyzed using LC/MS/MS determination, according to ADME-Bioanalysis (Vergeze, France) procedures.

[4] = system: E18 mixed hippocampal cell cultures; experiment: Kainate (KA)-induced neuronal excitotoxicity, PI staining; type: cell-based, rat (Wistar); conditions: KA 200 µM for 5 hrs; for neuroprotective effect on KA-induced neuronal death (relative neuronal death): 10 div cultures, compound added with KA, 0.05 to 50 µM
CDK1/CyclB = system: CDK1/CyclB; set-up: method as in PMID 15975926, PMID 15985434; conditions: previously described; ref [30], [31]; cited from earlier work
CDK2/CyclE = system: CDK2/CyclE; set-up: method as in PMID 15975926, PMID 15985434; conditions: previously described; ref [30], [31]; cited from earlier work
CDK5/p25 = system: CDK5/p25; set-up: method as in PMID 15975926, PMID 15985434; conditions: previously described; ref [30], [31]; cited from earlier work
ERK2 [5] = system: ERK2; set-up: method as in PMID 15975926, PMID 15985434; conditions: previously described; ref [30], [31]; cited from earlier work
CK1 = system: CK1; set-up: method as in PMID 15975926, PMID 15985434; conditions: previously described; ref [30], [31]; cited from earlier work
[6] = ICV infusion 500 µM starting 48 hrs before pMCAo
[7] = IP 25 mg/kg 15 min pre- and 1 hr post-MCAo, 25 mg/kg

Chain of Erk2 (P63085 whole entry): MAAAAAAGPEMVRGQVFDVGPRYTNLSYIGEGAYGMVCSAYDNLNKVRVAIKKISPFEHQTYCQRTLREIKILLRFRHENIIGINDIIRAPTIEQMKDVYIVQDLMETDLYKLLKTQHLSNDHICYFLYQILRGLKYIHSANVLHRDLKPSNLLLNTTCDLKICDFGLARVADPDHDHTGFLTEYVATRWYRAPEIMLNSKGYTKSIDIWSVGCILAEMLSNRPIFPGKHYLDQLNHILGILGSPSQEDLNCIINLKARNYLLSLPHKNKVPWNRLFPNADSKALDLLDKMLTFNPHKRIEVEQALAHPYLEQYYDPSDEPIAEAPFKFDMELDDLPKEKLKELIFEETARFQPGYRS

SMILES | binding of Erk2 to immobilized compound (Erk2 [1]) | binding of PDXK to immobilized compound (pyridoxal kinase (PDXK)) | decrease of the total infarct volume compared to vehicle [2, 6] | ischemic core volume compared to vehicle [2, 6] | reduction of the ischemic (hypometabolic) zone volume compared to vehicle [2, 6] | ischemic core volume compared to vehicle ([2]; IP 25 mg/kg 15 min pre- and 1 hr post-MCAo) | decrease of the ischemic (hypometabolic) zone volume compared to vehicle [2, 7] | decrease of the total infarct volume compared to vehicle [2, 7] | Kp at 0.25 h ([3]; 20 mg/kg, i.v. 20 mg/kg) | Kp at 0.25 h ([3]; 30 mg/kg, i.v. 30 mg/kg) | neuroprotective effect compared to the (R) stereoisomer ([4]; 0.5 µM) | neuroprotective effect on KA-induced neuronal death (relative neuronal death) [4] | neuroprotective effect on KA-induced neuronal death (relative neuronal death) ([4]; listed as N^6-methyl-(R)-roscovitine) | IC50 (CDK1/CyclB) [µM] | IC50 (CDK2/CyclE) [µM] | IC50 (CDK5/p25) [µM] | IC50 (ERK2 [5]) [µM] | IC50 (CK1) [µM]
CC[C@H](CO)Nc1nc(NCc2ccccc2)c2ncn(C(C)C)c2n1 [(R)-roscovitine] | bind | bind |  |  |  |  |  |  |  |  |  |  |  |  |  |  |  | 
CC[C@@H](CO)Nc1nc(NCc2ccccc2)c2ncn(C(C)C)c2n1 [(S)-roscovitine] | preferentially bound and bind | did not bind | 28% and 27.7% | comparable | 36% and 35.8% | comparable | 39% and 38.9% | 31% and 30.7% | 0.15 | 0.17 | significantly stronger neuroprotective effect; also recorded: significantly increased neuroprotective activity |  |  |  |  |  |  | 
CC[C@H](CO)Nc1nc(N(C)Cc2ccccc2)c2ncn(C(C)C)c2n1 [N^6-methyl (R)-roscovitine] |  | bind |  |  |  |  |  |  |  |  |  | no significant neuroprotective effect | did not exhibited any neuroprotective effect | 45 | 250 | 45 | > 1000 | > 1000
CC[C@H](CO)Nc1nc(OCc2ccccc2)c2ncn(C(C)C)c2n1 [O^6-(R)-roscovitine] |  |  |  |  |  |  |  |  |  |  |  | no significant neuroprotective effect; also recorded: did not exhibited any neuroprotective effect |  | 100 | 250 | 200 | 700 | > 1000
